Assay results reported in patent publication US4435404A, “Carbostyril derivatives” (priority 1980, dated 1984).

System: arterial papillary muscle
Assay: Positive inotropic effect, blood-perfused arterial papillary muscle
Design: species or system dog
Conditions: Canis lupus familiaris, into septal artery, read-out: Increasing of inotropic
Description: Positive inotropic effects of the novel carbostyril derivatives of the present invention were tested according to a method described by M. Endoh and K. Hashimoto, in "American Journal of Physiology", Vol. 218, No. 5, May, 1970, pages 1459-1463 as follows:
Adult bastard dogs of both sexes, weighing 8-12 kg, were anesthetized with pentobarbital-Na at a rate of 30 mg/kg by intraveneous administration. After another intraveneous administration of sodium heparin, 1,000 μ/kg, the test dog was sacrificed by blood letting. The heart of the dog was excised and immediately plunged into Locke's solution, then the arterial papillary muscle was excised out with interventicular septum. The septal artery was carefully isolated and cannulated with a polyethylene cannula and was ligated with thread. Septal arteries those of connected to other than the arterial papillary muscle were ligated with thread. Next, the donor adult bastard dogs, weighing 18-27 kg, were anesthetized with pentabarbital-Na (30 mg/kg, intraveneous injection), and further treated with intravenous administration of sodium heparin (1,000 μ/kg). The arterial papillary muscle was perfused through the septal artery being cannulated with the polyethylene cannula with the blood conducted from the carotid artery of the donor dog by aid of Peristaric pump. The perfusion pressure was maintained at 100 mmHg constantly. Then the muscle was electrically stimulated by an electronic stimulator through bipolar electrodes in contact with the interventicular septum. The strength of stimulation was 2 X (the minimum value for appearing the action), frequency 2 Hz, pulse duration 2 msec.
The isometric contraction generated was measured through a force-displacement transducer. The amount of blood flow in the coronary arteries was measured by determining the amount of the blood flow conducted to the septal artery by electromagnetic flow meter. All the data were recorded on an ink-writing recorder.
A solution containing a compound to be tested was injected into the septal artery through the rubber tube connected close to the shunk of the polyethylene cannula, in an amount of 10-30 μl.
The results obtained is shown in Table 4, in which the increasement (%) of contraction is indicated as the ratio of the contractions before and after the administration (injection) of the solution containing the test compound.

## O=C(CCCOc1ccc2[nH]c(=O)ccc2c1)N(CCO)C1CCCCC1 [No. 1, 6-{3-[N-(2-hydroxyethyl)-N-cyclohexylaminocarbonyl]propoxy}carbostyril]
Dosage 3 n mol
  activation at 3 nmol: 8.2%
Dosage 30 n mol
  activation at 30 nmol: 54.5%
